Data published in PubChem BioAssay (NCI).
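Five compound concentrations were applied to cells in 96-well plates for 48 hours; endpoints were derived by simple linear interpolation of the resulting dose-response curve. At the GI50, growth is halved. The concentration for full growth arrest is given as TGI.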

Columns and labels:
Experiment in all cases: DTP human tumour cell line panel, 48 h
[1] = tested on: OVCAR-3 ovarian
[2] = tested on: BT-549 breast
[3] = tested on: OVCAR-5 ovarian
[4] = tested on: SK-MEL-28 melanoma
[5] = tested on: OVCAR-8 ovarian
[6] = tested on: SN12C renal
[7] = tested on: A498 renal
[8] = tested on: KM12 colon
[9] = tested on: HT29 colon
[10] = tested on: EKVX NSCLC
[11] = tested on: SK-MEL-5 melanoma

## CCOC(=O)N1CCN(c2c(N)nc(C)[nH]c2=O)CC1
[1]
  TGI: > 100 µM
[2]
  TGI: > 100 µM
[3]
  TGI: > 100 µM
[4]
  TGI: > 100 µM
[5]
  TGI: > 100 µM
[6]
  TGI: > 100 µM
[7]
  TGI: > 100 µM
[8]
  TGI: > 100 µM
[9]
  TGI: > 100 µM
[10]
  TGI: > 100 µM

## CN1C2=Nc3n(c4ccccc4[n+]3C)CN2c2ccccc21
[1]
  TGI: 34.7 µM
[2]
  TGI: > 100 µM
[3]
  TGI: > 100 µM
[5]
  TGI: > 100 µM
[6]
  TGI: 93.7 µM
[8]
  TGI: 46.8 µM
[9]
  TGI: > 100 µM
[11]
  TGI: 27.8 µM
[10]
  TGI: > 100 µM

## Cc1nc2c(=O)n(-c3ccccc3)c(=O)n(-c3ccccc3)c2o1
[1]
  TGI: > 100 µM
[2]
  TGI: > 100 µM
[3]
  TGI: > 100 µM
[5]
  TGI: > 100 µM
[6]
  TGI: > 100 µM
[7]
  TGI: > 100 µM
[8]
  TGI: > 100 µM
[9]
  TGI: > 100 µM
[11]
  TGI: > 100 µM
[10]
  TGI: > 100 µM

## NC(=O)c1ccc[n+](C2=C([O-])c3ccccc3C(=O)/C2=N\S(=O)(=O)c2ccccc2)c1
[1]
  TGI: 17 µM
[2]
  TGI: 28.8 µM
[3]
  TGI: 33.3 µM
[4]
  TGI: 30.2 µM
[5]
  TGI: 28.4 µM
[6]
  TGI: 30.9 µM
[8]
  TGI: 26.7 µM
[9]
  TGI: 34 µM
[11]
  TGI: 21.3 µM
[10]
  TGI: 27.8 µM

## CCOC(=O)[C@@H](Cc1ccc(CCl)cc1)NC(C)=O
[1]
  TGI: > 100 µM
[2]
  TGI: > 100 µM
[3]
  TGI: 44.2 µM
[4]
  TGI: 86.2 µM
[5]
  TGI: > 100 µM
[6]
  TGI: 49.6 µM
[8]
  TGI: 40.5 µM
[9]
  TGI: > 100 µM
[11]
  TGI: 31.5 µM
[10]
  TGI: 54.9 µM

## C/C(=C\CSCC(N)C(=O)O)CC/C=C(\C)CNc1ccccc1 (configuration not stated)
[1]
  TGI: > 100 µM
[2]
  TGI: > 100 µM
[3]
  TGI: > 100 µM
[4]
  TGI: > 100 µM
[5]
  TGI: > 100 µM
[6]
  TGI: > 100 µM
[8]
  TGI: > 100 µM
[9]
  TGI: > 100 µM
[11]
  TGI: > 100 µM
[10]
  TGI: > 100 µM

## COc1cc2c(c(OC)c1)[C@H](C)N(Cc1ccccc1)C(C)C2 (some centres not stated)
[2]
  TGI: > 100 µM
[4]
  TGI: > 100 µM
[5]
  TGI: > 100 µM
[6]
  TGI: > 100 µM
[7]
  TGI: > 100 µM
[8]
  TGI: > 100 µM
[9]
  TGI: 75.2 µM
[11]
  TGI: 90.3 µM
[10]
  TGI: > 100 µM

## CC(C)(C)/C(O)=C\c1nc2cc(F)c(F)cc2[nH]c1=O
[2]
  TGI: > 100 µM
[4]
  TGI: > 100 µM
[5]
  TGI: > 100 µM
[7]
  TGI: > 100 µM
[8]
  TGI: > 100 µM
[9]
  TGI: > 100 µM
[11]
  TGI: > 100 µM
[10]
  TGI: > 100 µM

## CN(C)/N=N/c1nc2c(c(=O)n(C)c(=O)n2C)n1CC1CO1 (configuration not stated)
[1]
  TGI: 31.4 µM
[2]
  TGI: 52.7 µM
[3]
  TGI: > 100 µM
[4]
  TGI: 59.7 µM
[5]
  TGI: 36.7 µM
[6]
  TGI: 46.7 µM
[8]
  TGI: 50.7 µM
[9]
  TGI: 35.1 µM
[11]
  TGI: 25.5 µM
[10]
  TGI: 57.9 µM

## Cc1cccc2c1CC(Cc1ccccc1C(=O)O)C2=O (configuration not stated)
[1]
  TGI: > 100 µM
[2]
  TGI: > 100 µM
[3]
  TGI: > 100 µM
[4]
  TGI: > 100 µM
[5]
  TGI: > 100 µM
[6]
  TGI: > 100 µM
[8]
  TGI: > 100 µM
[9]
  TGI: > 100 µM
[11]
  TGI: > 100 µM
[10]
  TGI: > 100 µM

## COc1ccc(C2C=C(c3ccc(C)cc3)N(c3ccc(OC)cc3[N+](=O)[O-])C3C(=O)OC(=O)C23)c(OC)c1 (configuration not stated)
[1]
  TGI: 59 µM
[2]
  TGI: > 100 µM
[3]
  TGI: > 100 µM
[4]
  TGI: > 100 µM
[5]
  TGI: 39.5 µM
[7]
  TGI: > 100 µM
[8]
  TGI: 22.7 µM
[9]
  TGI: 86.4 µM
[11]
  TGI: > 100 µM
[10]
  TGI: > 100 µM

## Oc1ccccc1/C=N/N1C(=S)N(C23CC4CC(CC(C4)C2)C3)C(=Nc2ccccc2)C1=Nc1ccccc1
[1]
  TGI: > 100 µM
[2]
  TGI: > 100 µM
[3]
  TGI: > 100 µM
[4]
  TGI: > 100 µM
[5]
  TGI: > 100 µM
[6]
  TGI: > 100 µM
[8]
  TGI: > 100 µM
[9]
  TGI: > 100 µM
[11]
  TGI: > 100 µM
[10]
  TGI: > 100 µM

## O=C1c2cc3c(cc2-c2c1c1ccc(Cl)cc1c(=O)n2CCCn1ccnc1)OCO3
[1]
  GI50: 0.0396 µM
  TGI: 1.4 µM
[2]
  GI50: 0.0491 µM
  TGI: > 100 µM
[3]
  GI50: 0.0448 µM
  TGI: 49 µM
[4]
  GI50: 0.158 µM
  TGI: > 100 µM
[5]
  GI50: 0.0116 µM
  TGI: > 100 µM
[6]
  GI50: < 0.01 µM
  TGI: > 100 µM
[7]
  GI50: 0.025 µM
[9]
  GI50: 0.0174 µM
  TGI: > 100 µM
[10]
  GI50: 0.117 µM
  TGI: > 100 µM

## O=c1c2c3c(sc2nc2n1N=C(c1ccc(Br)cc1)CS2)CCCC3
[1]
  TGI: > 100 µM
[2]
  TGI: > 100 µM
[3]
  TGI: > 100 µM
[4]
  TGI: > 100 µM
[5]
  TGI: > 100 µM
[6]
  TGI: > 100 µM
[7]
  TGI: > 100 µM
[8]
  TGI: > 100 µM
[9]
  TGI: > 100 µM
[10]
  TGI: > 100 µM

## O=C1CSC(c2c[nH]c3ccccc23)N1c1ccc(Cl)cc1Cl (configuration not stated)
[1]
  TGI: > 100 µM
[2]
  TGI: > 100 µM
[3]
  TGI: > 100 µM
[4]
  TGI: > 100 µM
[5]
  TGI: > 100 µM
[6]
  TGI: > 100 µM
[8]
  TGI: > 100 µM
[9]
  TGI: > 100 µM
[11]
  TGI: > 100 µM
[10]
  TGI: > 100 µM

## CC[C@H](NC(=O)OC(C)(C)C)C(=O)NCP(=O)(OCc1ccc([N+](=O)[O-])cc1)OCc1ccc([N+](=O)[O-])cc1
[1]
  TGI: > 100 µM
[2]
  TGI: > 100 µM
[3]
  TGI: > 100 µM
[4]
  TGI: 92.9 µM
[5]
  TGI: > 100 µM
[6]
  TGI: > 100 µM
[8]
  TGI: > 100 µM
[9]
  TGI: 51.8 µM
[11]
  TGI: 26.4 µM

## CSc1nc(=O)c2nc(-c3cccs3)c(-c3cccs3)nc2n1C
[2]
  TGI: > 100 µM
[3]
  TGI: > 100 µM
[4]
  TGI: > 100 µM
[5]
  TGI: > 100 µM
[6]
  TGI: > 100 µM
[7]
  TGI: > 100 µM
[8]
  TGI: > 100 µM
[9]
  TGI: > 100 µM
[11]
  TGI: > 100 µM
[10]
  TGI: > 100 µM
